Like-named read-outs stand apart in the source and are kept apart here.
How the values were obtained:
Type in all cases: binding
[1] = molecular target: T1, HeLa cell extract proteins (Homo sapiens, UniProt P18074)
T1 construct: endogenous in cells; host or cells: HeLa cell extract
T1 sequence (P18074 1-760): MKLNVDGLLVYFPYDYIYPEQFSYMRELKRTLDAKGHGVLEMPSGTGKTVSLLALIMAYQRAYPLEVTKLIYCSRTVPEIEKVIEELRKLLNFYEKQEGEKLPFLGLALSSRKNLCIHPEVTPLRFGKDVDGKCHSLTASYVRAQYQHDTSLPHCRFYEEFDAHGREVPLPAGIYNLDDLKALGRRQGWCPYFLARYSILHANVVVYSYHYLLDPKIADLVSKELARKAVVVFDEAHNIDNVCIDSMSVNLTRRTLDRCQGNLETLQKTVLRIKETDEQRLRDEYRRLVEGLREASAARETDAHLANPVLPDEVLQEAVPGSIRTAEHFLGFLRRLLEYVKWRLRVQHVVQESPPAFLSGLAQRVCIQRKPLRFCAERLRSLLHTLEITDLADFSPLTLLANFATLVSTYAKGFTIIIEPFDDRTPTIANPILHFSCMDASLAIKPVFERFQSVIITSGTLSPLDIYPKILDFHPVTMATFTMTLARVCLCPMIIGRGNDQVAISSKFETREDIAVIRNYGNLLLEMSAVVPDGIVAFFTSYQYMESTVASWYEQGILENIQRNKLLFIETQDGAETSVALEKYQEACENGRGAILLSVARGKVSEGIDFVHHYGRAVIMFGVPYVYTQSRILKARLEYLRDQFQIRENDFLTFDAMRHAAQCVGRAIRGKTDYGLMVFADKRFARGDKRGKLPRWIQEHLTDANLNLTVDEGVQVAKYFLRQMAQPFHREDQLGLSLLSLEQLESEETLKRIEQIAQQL

[2] = molecular target: T2, HeLa cell extract proteins (Homo sapiens, UniProt Q15386)
T2 construct: endogenous in cells; host or cells: HeLa cell extract
T2 sequence (Q15386 1-1083): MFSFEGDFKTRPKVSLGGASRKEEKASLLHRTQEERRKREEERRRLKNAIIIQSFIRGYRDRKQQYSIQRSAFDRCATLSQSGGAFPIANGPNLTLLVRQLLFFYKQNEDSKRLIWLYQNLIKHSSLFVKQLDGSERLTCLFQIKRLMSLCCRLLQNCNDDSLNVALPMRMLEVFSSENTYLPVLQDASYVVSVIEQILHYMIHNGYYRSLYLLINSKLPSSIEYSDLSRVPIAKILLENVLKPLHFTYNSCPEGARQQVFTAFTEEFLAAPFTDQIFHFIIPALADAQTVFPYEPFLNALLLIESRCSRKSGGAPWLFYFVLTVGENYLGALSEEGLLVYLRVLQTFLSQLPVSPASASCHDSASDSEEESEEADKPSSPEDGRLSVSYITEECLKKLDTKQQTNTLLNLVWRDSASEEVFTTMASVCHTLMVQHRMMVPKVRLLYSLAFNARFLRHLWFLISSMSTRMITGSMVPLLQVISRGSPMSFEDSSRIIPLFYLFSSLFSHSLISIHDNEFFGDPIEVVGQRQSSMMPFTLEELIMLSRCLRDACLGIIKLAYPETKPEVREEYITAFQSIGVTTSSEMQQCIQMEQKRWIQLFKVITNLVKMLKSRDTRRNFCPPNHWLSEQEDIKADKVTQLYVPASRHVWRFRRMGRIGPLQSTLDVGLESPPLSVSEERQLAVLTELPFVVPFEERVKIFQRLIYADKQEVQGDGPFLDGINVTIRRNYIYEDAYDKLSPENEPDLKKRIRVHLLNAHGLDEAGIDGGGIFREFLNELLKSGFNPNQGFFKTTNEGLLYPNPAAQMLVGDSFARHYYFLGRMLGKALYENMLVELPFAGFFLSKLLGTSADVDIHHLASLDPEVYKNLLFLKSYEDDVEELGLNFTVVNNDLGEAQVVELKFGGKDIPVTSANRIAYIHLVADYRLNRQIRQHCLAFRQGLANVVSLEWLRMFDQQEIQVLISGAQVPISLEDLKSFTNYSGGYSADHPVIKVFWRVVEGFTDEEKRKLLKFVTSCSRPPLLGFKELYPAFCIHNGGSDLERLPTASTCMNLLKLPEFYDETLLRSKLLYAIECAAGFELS

[3] = molecular target: T3, HeLa cell extract proteins (Homo sapiens, UniProt P04004); details: HeLa; protein VTN
T3 construct: endogenous in cells; host or cells: HeLa cell extract
T3 sequence (P04004 20-478): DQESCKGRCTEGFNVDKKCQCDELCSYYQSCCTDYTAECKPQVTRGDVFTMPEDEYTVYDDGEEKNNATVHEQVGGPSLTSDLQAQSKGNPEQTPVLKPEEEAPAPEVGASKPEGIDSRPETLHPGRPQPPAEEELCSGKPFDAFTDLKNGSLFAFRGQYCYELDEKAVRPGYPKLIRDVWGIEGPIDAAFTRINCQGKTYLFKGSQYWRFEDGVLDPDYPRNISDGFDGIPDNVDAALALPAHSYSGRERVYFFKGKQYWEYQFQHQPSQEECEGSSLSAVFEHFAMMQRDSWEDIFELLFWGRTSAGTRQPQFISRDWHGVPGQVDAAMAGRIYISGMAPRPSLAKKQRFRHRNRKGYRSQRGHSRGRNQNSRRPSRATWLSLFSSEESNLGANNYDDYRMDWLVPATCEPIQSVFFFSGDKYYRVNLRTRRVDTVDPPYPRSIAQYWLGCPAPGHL

[4] = molecular target: T4, HeLa cell extract proteins (Homo sapiens, UniProt Q92688); details: HeLa; protein ANP32B (ISOFORM 1 OF ACIDIC LEUCINE-RICH NUCLEAR PHOSPHOPROTEIN 32 FAMILY MEMBER B.)
T4 construct: endogenous in cells; host or cells: HeLa cell extract

[5] = molecular target: T5, HeLa cell extract proteins (Homo sapiens, UniProt Q9H7Z7); details: captured protein PTGES2; HeLa
T5 construct: endogenous in cells; host or cells: HeLa cell extract
T5 sequence (Q9H7Z7 whole entry): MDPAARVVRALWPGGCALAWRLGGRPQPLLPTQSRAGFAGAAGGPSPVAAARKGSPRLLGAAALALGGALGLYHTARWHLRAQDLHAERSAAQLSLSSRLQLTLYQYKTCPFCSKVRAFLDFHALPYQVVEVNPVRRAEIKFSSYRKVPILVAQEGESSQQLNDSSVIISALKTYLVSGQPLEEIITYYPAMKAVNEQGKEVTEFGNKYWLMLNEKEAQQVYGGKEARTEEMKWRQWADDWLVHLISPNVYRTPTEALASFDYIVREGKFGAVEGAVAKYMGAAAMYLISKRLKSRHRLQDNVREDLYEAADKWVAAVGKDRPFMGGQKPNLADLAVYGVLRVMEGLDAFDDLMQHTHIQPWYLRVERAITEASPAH

T4 sequence (Q92688 whole entry, canonical isoform): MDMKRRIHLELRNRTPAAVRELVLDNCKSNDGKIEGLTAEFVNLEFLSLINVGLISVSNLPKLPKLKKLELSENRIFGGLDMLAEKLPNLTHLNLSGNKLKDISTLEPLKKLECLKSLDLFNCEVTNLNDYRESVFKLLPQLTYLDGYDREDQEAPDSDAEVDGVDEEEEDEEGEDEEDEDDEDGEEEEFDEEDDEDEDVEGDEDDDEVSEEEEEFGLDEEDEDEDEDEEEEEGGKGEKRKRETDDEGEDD

Nc1nc2c(c(=O)[nH]1)N(C=O)C(CNc1ccc(C(=O)N[C@@H](CCC(=O)O)C(=O)O)cc1)CN2 (some centres unmarked) [LEU, leucovorin]
fold changes relative to vehicle control ([1]; HeLa, captured protein ERCC2): 1.14
fold changes relative to vehicle control ([2]; HeLa, protein UBE3C): 0.91

Nc1nc2[nH]cc(CCc3ccc(C(=O)N[C@@H](CCC(=O)O)C(=O)O)cc3)c2c(=O)[nH]1 [PTX, pemetrexed]
fold changes relative to vehicle control [1]: 0.98
fold changes relative to vehicle control [2]: 0.96

CCCCCCOc1ccc(Cc2cnc(N)nc2N)cc1 [compound 1]
fold changes relative to vehicle control [3]: 1
fold changes relative to vehicle control [4]: 1.88 fold
fold changes relative to vehicle control [5]: 0.87

CCCCCCOc1cccc(Cc2cnc(N)nc2N)c1 [compound 2]
fold changes relative to vehicle control [3]: 0.91
fold changes relative to vehicle control [4]: 3.3 fold
fold changes relative to vehicle control [5]: 1.18

Nc1nc2cccc(-c3ccccc3)c2n1Cc1ccc(Cl)c(Cl)c1 [compound 3]
fold changes relative to vehicle control [3]: 1.05
fold changes relative to vehicle control [4]: 4.13 fold
fold changes relative to vehicle control [5]: 0.84

NCCOCCOCC(=O)Nc1nc2ncc(CNc3ccc(C(=O)NC(CCC(=O)O)C(=O)O)cc3)nc2c(=O)[nH]1 (centres unmarked) [compound 6]
fold changes relative to vehicle control ([1]; HeLa, captured protein ERCC2): 0.98
fold changes relative to vehicle control ([2]; HeLa, protein UBE3C): 1.01

NCCCNc1ccc(C(=O)NC(CCC(=O)O)C(=O)O)cc1 (centres unmarked) [compound 7]
fold changes relative to vehicle control ([1]; HeLa, captured protein ERCC2): 1
fold changes relative to vehicle control ([2]; HeLa, protein UBE3C): 1.04
